The values that follow come from patent US20110135671A1, “PURINE DERIVATIVES FOR USE IN THE TREATMENT OF ALLERGIC, INFLAMMATORY AND INFECTIOUS DISEASES” (GLAXOSMITHKLINE LLC, priority 2008, published 2011).

Each structure is given as a SMILES string. Where a name gives a salt, the structure may show the parent alone. Bounds are passed on as bounds.

In the assay the test system is Interferon-α. Description: Induction of Interferon-α using cryopreserved human PBMCs. It counts as cell-based. Conditions: PBMC, 24 h, normalised to 1 uM resiquimod, read-out: mean pEC50 for induction of Interferon-α (converted). The method, then:
Assay for the Induction of Interferon-α using Cryopreserved Human Peripheral Blood Mononuclear Cells (PBMCs)
Compounds were dissolved in DMSO. Serial 2-fold dilutions with DMSO were prepared and 0.25 μl dispensed into 384-well clear Greiner polypropylene plates.
Blood samples of up to 200 ml were obtained from healthy human donors. Whole blood in 25 ml volumes was overlaid onto 15 ml Ficoll gradients in Leucosep tubes, and centrifuged at 1000 g for 20 min. Cells in the band at the plasma/histopaque interface were carefully removed and washed twice with PBS (centrifuged at 400 g for 5 min to harvest). The final pellet was resuspended in freezing medium (90% Heat-inactivated serum, 10% DMSO) to a cell concentration of 4×10^7 cells/ml. The resuspended cells were then cryopreserved (frozen) using a rate controlled freezer, and stored at −140° C. for up to 4 months.
Incubation and Assay for Interferon-α
Immediately prior to assay, vials of cryopreserved (frozen) PBMCs were thawed rapidly in a water bath at 37° C. A 1:10 dilution of the cells in trypan blue was prepared and counted. The PBMCs were then diluted in growth media [RPMI 1640 containing 10% fetal calf serum (invitrogen), Penicillin+Streptavidin (Gibco cat. # 25030-024, 1:50), L-Glutamine 2 mM, and 1000 units/ml recombinant human IFN-gamma (Preprotech catalogue #300-02)] to a density of 1×10^6 cells/ml, and 50 ul/well dispensed to 384-well clear Greiner polypropylene plates containing 0.25 μl DMSO or test compound in 0.25 μl DMSO. […] Plates were incubated for 24 h at 37° C. in 5% CO2.
A multi-isoform immunoassay was used to quantify IFN-α in PBMC supernatants. Rabbit polyclonal antibody against human IFN-α (catalogue number 31101, Stratech Scientific) was diluted 1:10000 in assay buffer (RPMI 1640 containing 10% fetal calf serum, Invitrogen) and 20 μl was added to each well of an MSD (Meso-Scale Discovery) single small-spot 384-well GAR (goat anti-rabbit antibody coated) plate. The plate was incubated for 1 h at room temperature with vigorous shaking. Following three washes with PBS, 20 μl of cell supernatant were added to each well of the plate. The plate was then incubated for 1 h at room temperature with vigorous shaking. A pair of monoclonal antibodies to IFN-α (catalogue numbers 21100 and 21112, Stratech Scientific) were labelled with sulfo-TAG (MSD), diluted 1:1000 in assay buffer and 20 μl added to each well of the plate. The plate was further incubated for 1 h at room temperature with vigorous shaking. Following three washes with PBS, 30 μl of ×2 T buffer (MSD) was added to each well and the plate was read on an MSD Sector 6000 plate reader.
Data were normalised to internal plate controls of 1 uM resiquimod (n=16) and DMSO (n=16). pEC50 values were derived by 4-parameter curve fit with IRLS in ActivityBase, from 11-point, two-fold serial dilution of test compounds.

In the case of `CCCCOc1nc(N)c2[nH]c(=O)n(CCN3CCN(C4CCCCC4)CC3)c2n1` [Example 2, 6-Amino-2-(butyloxy)-9-[2-(4-cyclohexyl-1-piperazinyl)ethyl]-7,9-dihydro-8H-purin-8-one dihydrochloride salt], the EC50 is less than 3.16 µM.

For the molecule `CCCCNc1nc(N)c2[nH]c(=O)n(CCN3CCN(C)CC3)c2n1` [Example 3, 6-Amino-2-(butylamino)-9-[2-(4-methyl-1-piperazinyl)ethyl]-7,9-dihydro-8H-purin-8-one], the EC50 is less than 3.16 µM.

With `CCCCNc1nc(N)c2[nH]c(=O)n(CCN3CCN(C(C)C)CC3)c2n1` [Example 4, 6-Amino-2-(butylamino)-9-{2-[4-(1-methylethyl)-1-piperazinyl]ethyl}-7,9-dihydro-8H-purin-8-one], the EC50 was less than 3.16 µM.

Turning to `CCCCNc1nc(N)c2[nH]c(=O)n(CCN3CCN(C4CCCCC4)CC3)c2n1` [Example 5, 6-Amino-2-(butylamino)-9-[2-(4-cyclohexyl-1-piperazinyl)ethyl]-7,9-dihydro-8H-purin-8-one], the EC50 was less than 3.16 µM.

Turning to `CCCCOc1nc(N)c2[nH]c(=O)n(CCCN3CCN(CC)CC3)c2n1` [Example 7, 6-Amino-2-(butyloxy)-9-[3-(4-ethyl-1-piperazinyl)propyl]-7,9-dihydro-8H-purin-8-one], the EC50 was less than 3.16 µM.

For the molecule `CCCCOc1nc(N)c2[nH]c(=O)n(CCCN3CCN(CCC)CC3)c2n1` [Example 8, 6-Amino-2-(butyloxy)-9-[3-(4-propyl-1-piperazinyl)propyl]-7,9-dihydro-8H-purin-8-one], the EC50 is less than 3.16 µM.

In the case of `CCCCOc1nc(N)c2[nH]c(=O)n(CCCN3CCN(C(C)C)CC3)c2n1` [Example 9, 6-Amino-2-(butyloxy)-9-{3-[4-(1-methylethyl)-1-piperazinyl]propyl}-7,9-dihydro-8H-purin-8-one], the EC50 was less than 3.16 µM.

Take `CCCCOc1nc(N)c2[nH]c(=O)n(CCCN3CCN(CCCC)CC3)c2n1` [Example 10, 6-Amino-2-(butyloxy)-9-[3-(4-butyl-1-piperazinyl)propyl]-7,9-dihydro-8H-purin-8-one]: the EC50 was less than 3.16 µM.

On to `CCCCOc1nc(N)c2[nH]c(=O)n(CCCN3CCN(CC(C)C)CC3)c2n1` [Example 11, 6-Amino-2-(butyloxy)-9-{3-[4-(2-methylpropyl)-1-piperazinyl]propyl}-7,9-dihydro-8H-purin-8-one], for which the EC50 is less than 3.16 µM.

Consider `CCCCOc1nc(N)c2[nH]c(=O)n(CCCN3CCN(C(C)(C)C)CC3)c2n1` [Example 12, 6-Amino-2-(butyloxy)-9-{3-[4-(1,1-dimethylethyl)-1-piperazinyl]propyl}-7,9-dihydro-8H-purin-8-one], for which the EC50 was less than 3.16 µM.

`CCCCOc1nc(N)c2[nH]c(=O)n(CCCN3CCN(CC4CC4)CC3)c2n1` [Example 13, 6-Amino-2-(butyloxy)-9-{3-[4-(cyclopropylmethyl)-1-piperazinyl]propyl}-7,9-dihydro-8H-purin-8-one]: the EC50 was less than 3.16 µM.

On to `CCCCOc1nc(N)c2[nH]c(=O)n(CCCN3CCN(C4CCCC4)CC3)c2n1` [Example 14, 6-Amino-2-(butyloxy)-9-[3-(4-cyclopentyl-1-piperazinyl)propyl]-7,9-dihydro-8H-purin-8-one], for which the EC50 was less than 3.16 µM.

Consider `CCCCOc1nc(N)c2[nH]c(=O)n(CCCN3CCN(C4CCCCC4)CC3)c2n1` [Example 15, 6-Amino-2-(butyloxy)-9-[3-(4-cyclohexyl-1-piperazinyl)propyl]-7,9-dihydro-8H-purin-8-one], for which the EC50 is less than 3.16 µM.

As to `CCCCNc1nc(N)c2[nH]c(=O)n(CCCN3CCN(C)CC3)c2n1` [Example 16, 6-Amino-2-(butylamino)-9-[3-(4-methyl-1-piperazinyl)propyl]-7,9-dihydro-8H-purin-8-one], the EC50 was less than 3.16 µM.

With `CCCCNc1nc(N)c2[nH]c(=O)n(CCCN3CCN(CC)CC3)c2n1` [Example 17, 6-Amino-2-(butylamino)-9-[3-(4-ethyl-1-piperazinyl)propyl]-7,9-dihydro-8H-purin-8-one], the EC50 is less than 3.16 µM.

Regarding `CCCCNc1nc(N)c2[nH]c(=O)n(CCCN3CCN(CCC)CC3)c2n1` [Example 18, 6-Amino-2-(butylamino)-9-[3-(4-propyl-1-piperazinyl)propyl]-7,9-dihydro-8H-purin-8-one], the EC50 was less than 3.16 µM.

Turning to `CCCCNc1nc(N)c2[nH]c(=O)n(CCCN3CCN(C(C)C)CC3)c2n1` [Example 19, 6-Amino-2-(butylamino)-9-{3-[4-(1-methylethyl)-1-piperazinyl]propyl}-7,9-dihydro-8H-purin-8-one], the EC50 is less than 3.16 µM.

As to `CCCCNc1nc(N)c2[nH]c(=O)n(CCCN3CCN(CCCC)CC3)c2n1` [Example 20, 6-Amino-2-(butylamino)-9-[3-(4-butyl-1-piperazinyl)propyl]-7,9-dihydro-8H-purin-8-one], the EC50 was less than 3.16 µM.

Consider `CCCCNc1nc(N)c2[nH]c(=O)n(CCCN3CCN(CC(C)C)CC3)c2n1` [Example 21, 6-Amino-2-(butylamino)-9-{3-[4-(2-methylpropyl)-1-piperazinyl]propyl}-7,9-dihydro-8H-purin-8-one], for which the EC50 is less than 3.16 µM.

In the case of `CCCCNc1nc(N)c2[nH]c(=O)n(CCCN3CCN(C(C)(C)C)CC3)c2n1` [Example 22, 6-Amino-2-(butylamino)-9-{3-[4-(1,1-dimethylethyl)-1-piperazinyl]propyl}-7,9-dihydro-8H-purin-8-one], the EC50 was less than 3.16 µM.

As to `CCCCNc1nc(N)c2[nH]c(=O)n(CCCN3CCN(CC4CC4)CC3)c2n1` [Example 23, 6-Amino-2-(butylamino)-9-{3-[4-(cyclopropylmethyl)-1-piperazinyl]propyl}-7,9-dihydro-8H-purin-8-one], the EC50 was less than 3.16 µM.

For the molecule `CCCCNc1nc(N)c2[nH]c(=O)n(CCCN3CCN(C4CCCC4)CC3)c2n1` [Example 24, 6-Amino-2-(butylamino)-9-[3-(4-cyclopentyl-1-piperazinyl)propyl]-7,9-dihydro-8H-purin-8-one], the EC50 was less than 3.16 µM.

As to `CCCCNc1nc(N)c2[nH]c(=O)n(CCCN3CCN(C4CCCCC4)CC3)c2n1` [Example 25, 6-Amino-2-(butylamino)-9-[3-(4-cyclohexyl-1-piperazinyl)propyl]-7,9-dihydro-8H-purin-8-one], the EC50 was less than 3.16 µM.

As to `CCCCOc1nc(N)c2[nH]c(=O)n(CCCCN3CCN(CCC)CC3)c2n1` [Example 28, 6-Amino-2-(butyloxy)-9-[4-(4-propyl-1-piperazinyl)butyl]-7,9-dihydro-8H-purin-8-one], the EC50 was less than 3.16 µM.

For the molecule `CCCCOc1nc(N)c2[nH]c(=O)n(CCCCN3CCN(CCCC)CC3)c2n1` [Example 30, 6-Amino-2-(butyloxy)-9-[4-(4-butyl-1-piperazinyl)butyl]-7,9-dihydro-8H-purin-8-one], the EC50 is less than 3.16 µM.

Consider `CCCCOc1nc(N)c2[nH]c(=O)n(CCCCN3CCN(CC(C)C)CC3)c2n1` [Example 31, 6-Amino-2-(butyloxy)-9-{4-[4-(2-methylpropyl)-1-piperazinyl]butyl}-7,9-dihydro-8H-purin-8-one], for which the EC50 was less than 3.16 µM.

Turning to `CCCCOc1nc(N)c2[nH]c(=O)n(CCCCN3CCN(CC4CC4)CC3)c2n1` [Example 33, 6-Amino-2-(butyloxy)-9-{4-[4-(cyclopropylmethyl)-1-piperazinyl]butyl}-7,9-dihydro-8H-purin-8-one], the EC50 is less than 3.16 µM.

With `CCCCOc1nc(N)c2[nH]c(=O)n(CCCCN3CCN(C4CCCC4)CC3)c2n1` [Example 34, 6-Amino-2-(butyloxy)-9-[4-(4-cyclopentyl-1-piperazinyl)butyl]-7,9-dihydro-8H-purin-8-one], the EC50 was less than 3.16 µM.

Turning to `CCCCOc1nc(N)c2[nH]c(=O)n(CCCCN3CCN(C4CCCCC4)CC3)c2n1` [Example 35, 6-Amino-2-(butyloxy)-9-[4-(4-cyclohexyl-1-piperazinyl)butyl]-7,9-dihydro-8H-purin-8-one], the EC50 is less than 3.16 µM.

Consider `CCCCNc1nc(N)c2[nH]c(=O)n(CCCCN3CCN(CC)CC3)c2n1` [Example 36, 6-Amino-2-(butylamino)-9-[4-(4-ethyl-1-piperazinyl)butyl]-7,9-dihydro-8H-purin-8-one], for which the EC50 was less than 3.16 µM.
